# Measured values from patent EP2676666A1, “Compounds for use in diagnosis or therapy of vulnerable atherosclerotic plaques” (Eidgenössische Technische Hochschule Zürich (ETH), priority 2012, dated 2013).
# Test system: human atherosclerotic plaques
# Assay: Autoradiography binding study on human atherosclerotic plaque sections
# Conditions: 2.5 nM; for maximal bound ^11C-Compound 4: average value (red line), 20 min, room temperature, values normalized to vulnerable plaque 8
# Experimental: Compound 4 was labeled with ^11C (specific activity ~350 GBq/µmol) and human atherosclerotic sections were incubated with 2.5 nM for 20 min, room temperature. Nonspecific binding was determined in the presence of excess nonradioactive Compound 4 (100 µM). After washing to remove unspecific bound ^11C-Compound 4, slides were exposed to a radiosensitive film (BAS-5000 Fujifilm) for 30 min. Calibration standards (2.5 - 0.02 nM) were included in the cassette. Films were developed using an automatic film processor (BAS 5000, Fuji) Quantitative analysis was performed using a computerized image analysis system (AIDA Image Analyzer Software). Optical density readings, corrected for background, were made and values standardized against the linear portion of a curve generated using standards and expressed as maximal bound ^11C-Compound 4. Values were normalized to patient "vulnerable plaque 8" (Fig. 5).
structure (smiles),measurement,setting,value
[11CH3]N1CCC(NC(=O)c2ccc(-n3nc4c5cccc(F)c5[nH]nc-4c3=O)cc2)CC1 [^11C-Compound 4],maximal bound ^11C-Compound 4,Fig. 5 (B),0.7
same,maximal bound ^11C-Compound 4,"Fig. 5 (C), stable plaques",0.15
same,maximal bound ^11C-Compound 4,"Fig. 5 (C), vulnerable plaques",1.2
same,binding to vulnerable plaques compared to stable plaques,conclusion in words from the autoradiography,higher affinity to vulnerable plaques compared to stable plaques
